Like-named read-outs stand apart in the source and are kept apart here.
Columns and labels:
[1] = molecular target: T1, human histone deacetylases (HDAC) 6 (Homo sapiens, UniProt Q9UBN7); test: HDAC enzymatic assay, HDAC6; type: biochemical; conditions: for selective inhibitions on HDAC6: HDAC6 versus other HDACs
T1 sequence (Q9UBN7 1-1215): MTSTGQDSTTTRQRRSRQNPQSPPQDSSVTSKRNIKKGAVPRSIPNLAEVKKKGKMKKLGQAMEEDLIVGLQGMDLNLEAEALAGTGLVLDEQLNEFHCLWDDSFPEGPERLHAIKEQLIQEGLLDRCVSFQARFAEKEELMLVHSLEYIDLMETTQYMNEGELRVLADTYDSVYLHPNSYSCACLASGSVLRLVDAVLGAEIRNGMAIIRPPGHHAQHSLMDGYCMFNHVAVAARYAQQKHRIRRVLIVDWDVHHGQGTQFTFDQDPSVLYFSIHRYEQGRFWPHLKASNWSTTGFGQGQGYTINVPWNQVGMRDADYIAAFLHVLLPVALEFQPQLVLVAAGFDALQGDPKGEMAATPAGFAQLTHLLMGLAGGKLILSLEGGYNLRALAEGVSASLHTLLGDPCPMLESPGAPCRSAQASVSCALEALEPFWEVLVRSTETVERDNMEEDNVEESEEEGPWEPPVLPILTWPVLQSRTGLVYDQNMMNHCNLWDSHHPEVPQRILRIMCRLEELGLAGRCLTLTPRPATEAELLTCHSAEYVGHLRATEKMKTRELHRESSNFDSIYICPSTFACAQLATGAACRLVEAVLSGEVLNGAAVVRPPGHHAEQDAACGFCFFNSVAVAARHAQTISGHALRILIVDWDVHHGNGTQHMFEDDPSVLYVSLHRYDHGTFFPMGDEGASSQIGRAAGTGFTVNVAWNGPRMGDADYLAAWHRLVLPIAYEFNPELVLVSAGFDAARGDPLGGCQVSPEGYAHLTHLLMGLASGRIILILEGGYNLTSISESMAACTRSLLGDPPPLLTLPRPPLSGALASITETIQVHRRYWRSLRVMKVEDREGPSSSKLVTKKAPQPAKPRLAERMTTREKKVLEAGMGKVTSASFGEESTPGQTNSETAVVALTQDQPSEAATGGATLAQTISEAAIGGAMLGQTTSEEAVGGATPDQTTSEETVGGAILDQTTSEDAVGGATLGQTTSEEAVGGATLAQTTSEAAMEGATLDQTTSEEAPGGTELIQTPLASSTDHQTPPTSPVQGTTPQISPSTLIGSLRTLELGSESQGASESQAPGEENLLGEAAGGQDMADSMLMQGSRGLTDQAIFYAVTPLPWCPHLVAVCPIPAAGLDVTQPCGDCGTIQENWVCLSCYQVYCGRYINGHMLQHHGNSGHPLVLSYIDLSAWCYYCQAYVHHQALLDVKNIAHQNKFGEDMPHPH

[2] = molecular target: T2, human histone deacetylases (HDAC) 8 (Homo sapiens, UniProt Q9BY41); test: HDAC enzymatic assay, HDAC8; type: biochemical
T2 sequence (Q9BY41 1-377): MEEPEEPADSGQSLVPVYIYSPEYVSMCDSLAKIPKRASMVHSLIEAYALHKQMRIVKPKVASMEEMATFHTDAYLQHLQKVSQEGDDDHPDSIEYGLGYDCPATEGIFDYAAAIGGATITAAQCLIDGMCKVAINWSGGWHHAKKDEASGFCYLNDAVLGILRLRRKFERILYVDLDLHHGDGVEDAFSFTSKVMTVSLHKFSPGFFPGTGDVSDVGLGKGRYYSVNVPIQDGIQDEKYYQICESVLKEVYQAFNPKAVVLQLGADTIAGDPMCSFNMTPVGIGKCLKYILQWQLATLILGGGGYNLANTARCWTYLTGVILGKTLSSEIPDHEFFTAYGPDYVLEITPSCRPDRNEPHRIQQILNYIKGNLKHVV

[3] = MTT or SRB assay for cytotoxicity, A549; type: cell-based; conditions: human, A549 cells, read-out: cytotoxicity IC50 (grading) A549
Procedure: (§1) MTT or SRB Assays for Cytotoxicities of HDAC Inhibitors.
(§2) These compounds were assayed for cytotoxicities to the following cells: A549 cells (adenocarcinomic human alveolar basal epithelial cells), HCT-116 cells (human colon carcinoma cells). PANC-1 cells (human pancreatic carcinoma, epithelial-like cell line) and HepG2 cells (human liver hepatocellular carcinoma cell line), neuronal cells PC12 (rat pheochromocytoma cell line) and SH-SY5Y (human neuroblastoma cell line). MTT (3-[4,5-dimethylthiazol-2-yl]2,5-diphenyl-tetrazolium bromide) reduction was collaborated by using trypan blue exclusion assay.

[4] = MTT or SRB assay for cytotoxicity, HCT116; type: cell-based; conditions: human, HCT-116 cells, read-out: cytotoxicity IC50 (grading) HCT116
Procedure: as §1, §2

[5] = MTT or SRB assay for cytotoxicity, PANC1; type: cell-based; conditions: human, PANC-1 cells, read-out: cytotoxicity IC50 (grading) PANC1
Procedure: as §1, §2

[6] = MTT or SRB assay for cytotoxicity, HepG2; type: cell-based; conditions: human, HepG2 cells, read-out: cytotoxicity IC50 (grading) HepG2
Procedure: as §1, §2

[7] = test system: PC 12 cells; test: Neurite synaptic uptake activity (FM1-43), PC 12; type: cell-based; conditions: Rattus norvegicus, NGF positive control taken as 100%, read-out: uptake of dye FM1-43 EC50
Procedure: (§3) Neurite Synaptic Uptake Activity Analysis.
(§4) The effects of compounds on the neuronal synapse uptake of fluorescent indicator FM1-43 were assayed. The uptake of the dye indicated the synaptic function of the neurites. PC 12 and SH-SY5Y cells were used. Cells in experimental groups were treated with a test compound and FM1-43; Cells in positive control were treated with NGF and FM1-43; Cells in negative control were treated with a vehicle and FM1-43. The fluorescence in the positive control were taken as 100%.

[8] = molecular target: human histone deacetylases (HDAC) 1 (Homo sapiens, UniProt Q13547); test: HDAC enzymatic assay, HDAC1; type: biochemical; conditions: read-out: IC50 HDAC1 (grading)
[9] = test system: PC 12 cells; test: Neurite outgrowth assay, PC 12; type: cell-based; conditions: Rattus norvegicus
[10] = test system: SH-SY5Y cells; test: Neurite outgrowth assay, SH-SY5Y; type: cell-based; conditions: Homo sapiens
[11] = test system: SH-SY5Y cells; test: Neurite synaptic uptake activity (FM1-43), SH-SY5Y; type: cell-based; conditions: Homo sapiens, NGF positive control taken as 100%, read-out: uptake of dye FM1-43 EC50
Procedure: as §3, §4

[12] = HDAC6, read-out: IC50 HDAC6 (grading)
[13] = HDAC8, read-out: IC50 HDAC8 (grading)

Chain of human histone deacetylases (HDAC) 1 (Q13547 whole entry): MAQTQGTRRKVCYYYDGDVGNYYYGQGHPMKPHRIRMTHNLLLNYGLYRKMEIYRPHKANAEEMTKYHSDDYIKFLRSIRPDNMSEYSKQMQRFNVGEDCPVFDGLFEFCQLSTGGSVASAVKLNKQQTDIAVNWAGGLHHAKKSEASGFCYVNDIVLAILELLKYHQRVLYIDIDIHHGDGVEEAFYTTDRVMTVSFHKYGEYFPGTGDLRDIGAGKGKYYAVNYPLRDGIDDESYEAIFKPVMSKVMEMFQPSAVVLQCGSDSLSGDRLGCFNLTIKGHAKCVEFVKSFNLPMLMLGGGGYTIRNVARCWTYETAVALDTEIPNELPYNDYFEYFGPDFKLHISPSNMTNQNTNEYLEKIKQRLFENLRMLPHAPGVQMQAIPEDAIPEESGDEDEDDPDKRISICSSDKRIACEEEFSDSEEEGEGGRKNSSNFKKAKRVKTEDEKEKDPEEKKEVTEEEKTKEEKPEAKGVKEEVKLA

Row | SMILES | IC50 [1] [µM] | IC50 [2] [µM] | IC50 [3] [µM] | IC50 [4] [µM] | IC50 [5] [µM] | IC50 [6] [µM] | EC50 [7] [µM] | IC50 [8] [µM] | IC50 [1, 12] [µM] | EC50 [9] [µM] | EC50 [10] [µM] | EC50 [11] [µM] | melting point | selective inhibitions on HDAC6 [1] | IC50 [2, 13] [µM]
1 | CCc1nc2c(Cc3ccc(C(=O)NO)cc3)cccc2c(=O)n1CCc1ccccc1 [Compound 4c, 4-((2-ethyl-3,4-dihydro-4-oxo-3-phenethylquinazolin-8-yl)methyl)-N-hydroxybenzamide] | 0.1 to 1 | 0.1 to 1 | ≥ 10 | ≥ 10 | ≥ 10 | 1 to 10 | 5.34 ± 0.85 | – | – | – | – | – | – | – | –
2 | O=C(/C=C/c1ccc2c(=O)n(CCc3ccccc3)c(C3CC3)nc2c1)NO [Compound 1k, (2E)-3-(2-cyclopropyl-3,4-dihydro-4-oxo-3-phenethylquinazolin-7-yl)-N-hydroxyacrylamide] | – | – | – | – | – | – | 0.76 ± 0.69 | 0.1 to 1 | < 0.1 | 0.76 ± 0.69 | > 30 | > 30 | 204 to 206 °C (dec.) | – | –
3 | CCc1nc2ccc(Cc3ccc(C(=O)NO)cc3)cc2c(=O)n1CCc1ccccc1 [Compound 4a, 4-((2-ethyl-3,4-dihydro-4-oxo-3-phenethylquinazolin-6-yl)methyl)-N-hydroxybenzamide] | – | – | – | – | – | – | 2.89 ± 0.45 | 1 to 10 | < 0.1 | 2.89 ± 0.45 | 4.06 ± 0.58 | 4.06 ± 0.58 | – | selective inhibitions on HDAC6 | < 0.1
4 | CCc1nc2cc(/C=C/C(=O)NO)ccc2c(=O)n1CCCc1ccccc1 [Compound 1j, (2E)-3-(2-ethyl-3,4-dihydro-4-oxo-3-(3-phenylpropyl)quinazolin-7-yl)-N-hydroxyacrylamide] | – | – | – | – | – | – | 6.95 ± 0.82 | 1 to 10 | < 0.1 | 6.95 ± 0.82 | 9.97 ± 1.17 | 9.97 ± 1.17 | 189 to 191 °C | selective inhibitions on HDAC6 | 1 to 10
5 | CCc1nc2c(-c3ccc(C(=O)NO)cc3)cccc2c(=O)n1CCc1ccccc1 [Compound 5a, 4-(2-ethyl-3,4-dihydro-4-oxo-3-phenethylquinazolin-8-yl)-N-hydroxybenzamide] | – | – | ≥ 10 | ≥ 10 | 1 to 10 | ≥ 10 | – | – | – | – | – | – | 202 to 204 °C (dec.) | – | –
6 | Cc1nc2cc(/C=C/C(=O)NO)ccc2c(=O)n1-c1ccccc1 [Compound 1c, (2E)-3-(3,4-dihydro-2-methyl-4-oxo-3-phenylquinazolin-7-yl)-N-hydroxyacrylamide] | < 0.1 | 1 to 10 | – | – | – | – | – | – | – | – | – | – | – | – | –
7 | CC(C)c1nc2cc(/C=C/C(=O)NO)ccc2c(=O)n1CCc1ccccc1 [Compound 1l, (2E)-3-(3,4-dihydro-2-isopropyl-4-oxo-3-phenethylquinazolin-7-yl)-N-hydroxyacrylamide] | – | – | – | – | – | – | 5.28 ± 0.51 | 0.1 to 1 | < 0.1 | 5.28 ± 0.51 | 6.74 ± 0.78 | 6.74 ± 0.78 | 173 to 174 °C (dec.) | – | –
8 | CCc1nc2cc(/C=C/C(=O)NO)c(F)cc2c(=O)n1CCc1ccccc1 [Compound 2a, (2E)-3-(2-ethyl-6-fluoro-3,4-dihydro-4-oxo-3-phenethylquinazolin-7-yl)-N-hydroxyacrylamide] | – | – | 1 to 10 | 1 to 10 | 1 to 10 | 1 to 10 | 1.66 ± 0.76 | 1 to 10 | < 0.1 | – | – | – | – | selective inhibitions on HDAC6 | 1 to 10
9 | CCc1nc2cc(Cl)c(/C=C/C(=O)NO)cc2c(=O)n1CCc1ccccc1 [Compound 3b, (2E)-3-(7-chloro-2-ethyl-3,4-dihydro-4-oxo-3-phenethylquinazolin-6-yl)-N-hydroxyacrylamide] | – | – | 1 to 10 | ≥ 10 | 0.1 to 1 | ≥ 10 | 10.7 ± 1.26 | > 10 | 0.1 to 1 | 10.7 ± 1.26 | 7.63 ± 0.74 | 7.63 ± 0.74 | – | – | 1 to 10
10 | CCc1nc2cc(F)c(/C=C/C(=O)NO)cc2c(=O)n1CCc1ccccc1 [Compound 3a, (2E)-3-(2-ethyl-7-fluoro-3,4-dihydro-4-oxo-3-phenethylquinazolin-6-yl)-N-hydroxyacrylamide] | – | – | 1 to 10 | ≥ 10 | ≥ 10 | ≥ 10 | 0.78 ± 0.49 | 1 to 10 | < 0.1 | – | – | – | 183 to 185 °C (dec.) | selective inhibitions on HDAC6 | 0.1 to 1
11 | CCc1nc2cc(/C=C/C(=O)NO)ccc2c(=O)n1CCc1ccc(F)cc1 [Compound 1n, (2E)-3-(3-(4-fluorophenethyl)-2-ethyl-3,4-dihydro-4-oxoquinazolin-7-yl)-N-hydroxyacrylamide] | – | – | 1 to 10 | 1 to 10 | 1 to 10 | 1 to 10 | 13.9 ± 0.94 | 1 to 10 | < 0.1 | 13.9 ± 0.94 | 22.2 ± 2.01 | 22.2 ± 2.01 | 195 to 197 °C (dec.) | – | 0.1 to 1
12 | CCc1nc2cc(/C=C/C(=O)NO)ccc2c(=O)n1CCc1ccc(OC)cc1 [Compound 1m] | – | – | 1 to 10 | 1 to 10 | 1 to 10 | 1 to 10 | 20.6 ± 3.12 | 1 to 10 | < 0.1 | 20.6 ± 3.12 | 20.6 ± 2.51 | 20.6 ± 2.51 | 215 to 217 °C | – | 0.1 to 1
13 | CCc1nc2cc(Cc3ccc(C(=O)NO)cc3)ccc2c(=O)n1CCc1ccccc1 [Compound 4b, 4-((2-ethyl-3,4-dihydro-4-oxo-3-phenethylquinazolin-7-yl)methyl)-N-hydroxybenzamide] | – | – | 1 to 10 | 1 to 10 | 1 to 10 | 0.1 to 1 | – | – | < 0.1 | – | – | – | 181 to 183 °C (dec.) | selective inhibitions on HDAC6 | –
